The source of these data is patent publication US11285156B2, “Substituted piperazines as KRAS G12C inhibitors” (Amgen Inc., priority 2018, dated 2022).

Molecules are shown by their SMILES. Where two headings read alike, the source gives them in different places.

Test [1] concerns Phosphorylation of ERK1/2 in A549 cells. Description: Phospho-ERK1/2 MSD assay in A549 cells. It counts as cell-based. Conditions: read-out: p-ERK IC50 (2 h, A549; μM). The method, then:
(§1) Phospho-ERK1/2 MSD Assay:
(§2) MIA PaCa-2 (ATCC® CRL-1420™) and A549 (ATCC® CCL-185™) cells were cultured in RPMI 1640 Medium (ThermoFisher Scientific 11875093) containing 10% fetal bovine serum (ThermoFisher Scientific 16000044) and 1× penicillin-streptomycin-glutamine (ThermoFisher Scientific 10378016). Sixteen hours prior to compound treatment, MIA PaCa-2 or A549 cells were seeded in 96-well cell culture plates at a density of 25,000 cells/well and incubated at 37° C., 5% CO2. A compound dose-response titration was diluted in growth media, added to appropriate wells of a cell culture plate, and then incubated at 37° C., 5% CO2 for 2 or 4 hours (see Table 15). Following compound treatment, cells were stimulated with 10 ng/mL EGF (Roche 11376454001) for 10 min, washed with ice-cold Dulbecco's phosphate-buffered saline, no Ca2+ or Mg2+ (ThermoFisher Scientific 14190144), and then lysed in RIPA buffer (50 mM Tris-HCl pH 7.5, 1% Igepal, 0.5% sodium deoxycholate, 150 mM NaCl. and 0.5% sodium dodecyl sulfate) containing protease inhibitors (Roche 4693132001) and phosphatase inhibitors (Roche 4906837001). Phosphorylation of ERK1/2 in compound-treated lysates was assayed using Phospho-ERK1/2 Whole Cell Lysate kits (Meso Scale Discovery K151DWD) according to the manufacturer's protocol.

The subject of test [2] is Phosphorylation of ERK1/2 in MIA PaCa-2 cells. The test can be described thus: Phospho-ERK1/2 MSD assay in MIA PaCa-2 cells. It counts as cell-based. Conditions: read-out: p-ERK IC50 (2 h, MiaPaCa-2; μM). The method, then: as §1
as §2, with “Sixteen” for “MIA PaCa-2 (ATCC® CRL-1420™) and A549 (ATCC® CCL-185™) cells were cultured in RPMI 1640 Medium (ThermoFisher Scientific 11875093) containing 10% fetal bovine serum (ThermoFisher Scientific 16000044) and 1× penicillin-streptomycin-glutamine (ThermoFisher Scientific 10378016). Sixteen”

Setting [3] is: Homo sapiens, A549, 2 h, 2 h compound treatment, A549 cells, EGF stimulated.
[4] abbreviates: Homo sapiens, MIA PaCa-2, 2 h, 2 h compound treatment, MIA PaCa-2 cells, EGF stimulated.
[5] abbreviates: 2 h compound treatment, MIA PaCa-2 cells, EGF stimulated.
[6] abbreviates: 2 h compound treatment, A549 cells, EGF stimulated.

Regarding `C=CC(=O)N1C[C@H](C)N(c2nc(=O)n(-c3c(C)ccnc3C(C)C)c3nc(-c4cc(F)c(F)c(F)c4N)c(Cl)cc23)C[C@H]1C` (atropisomer, axis not shown; (M)) [Example 92-38, (M)-7-(2-Amino-3,4,5-trifluoro-phenyl)-6-chloro-4-[(2S,5R)-2,5-dimethyl-4-prop-2-enoyl-piperazin-1-yl]-1-(2-isopropyl-4-methyl-3-pyridyl)pyrido [2,3-d]pyrimidin-2-one], the IC50 is more than 7.5 µM in test [1] (setting [3]) and 0.042 µM in test [2] (setting [4]).

As to `C=CC(=O)N1C[C@H](C)N(c2nc(=O)n(-c3c(C)ccnc3C(C)C)c3nc(-c4ccccc4[S+](C)[O-])c(Cl)cc23)C[C@H]1C` (atropisomer, axis not shown; (M)) [Example 212-1, (M)-4-((2S,5R)-4-Acryloyl-2,5-dimethylpiperazin-1-yl)-6-chloro-1-(2-isopropyl-4-methylpyridin-3-yl)-7-(2-(methylsulfinyl)phenyl)pyrido[2,3-d]pyrimidin-2(1H)-one], the concentration for half-maximal inhibition (IC50) is more than 7.5 µM in test [1] (setting [3]) and 0.705 µM in test [2] (setting [5]).

For the molecule `C=CC(=O)N1C[C@H](C)N(c2nc(=O)n(-c3c(C)ccnc3C(C)C)c3nc(-c4cscc4C)c(Cl)cc23)C[C@H]1C` (atropisomer, axis not shown; (M)) [Example 92-5, (M)-6-Chloro-4-[(2S,5R)-2,5-dimethyl-4-prop-2-enoyl-piperazin-1-yl]-1-(2-isopropyl-4-methyl-3-pyridyl)-7-(4-methyl-3-thienyl)pyrido[2,3-d]pyrimidin-2-one], the IC50 in test [1] (setting [3]) is more than 7.5 µM; in test [2] (setting [4]) it was 0.119 µM.

As for `C=CC(=O)N1C[C@H](C)N(c2nc(=O)n(-c3c(C)ccnc3C(C)C)c3nc(C4=CCCCC4)c(Cl)cc23)C[C@H]1C` (atropisomer, axis not shown; (M)) [Example 92-6, (M)-6-Chloro-7-(cyclohexen-1-yl)-4-[(2S,5R)-2,5-dimethyl-4-prop-2-enoyl-piperazin-1-yl]-1-(2-isopropyl-4-methyl-3-pyridyl)pyrido [2,3-d]pyrimidin-2-one], the values for the IC50 in test [1] (setting [3]) and in test [2] (setting [4]) were more than 7.5 µM and 0.237 µM, respectively.

Take `C=CC(=O)N1C[C@H](C)N(c2nc(=O)n(-c3c(C)ccnc3C(C)C)c3nc(-c4ccccc4[S+](C)[O-])c(Cl)cc23)C[C@H]1C` (atropisomer, axis not shown; (M)) [Example 212-2, (M)-4-((2S,5R)-4-Acryloyl-2,5-dimethylpiperazin-1-yl)-6-chloro-1-(2-isopropyl-4-methylpyridin-3-yl)-7-(2-(methylsulfinyl)phenyl)pyrido[2,3-d]pyrimidin-2(1H)-one]: the results for the IC50 in test [1] (setting [6]) and in test [2] (setting [5]) were more than 7.5 µM and 0.237 µM, respectively.

Regarding `C=CC(=O)N1C[C@H](C)N(c2nc(=O)n(-c3c(C)ccnc3C(C)C)c3nc(-c4c(F)cccc4[S+](C)[O-])c(Cl)cc23)C[C@H]1C` (atropisomer, axis not shown; (M)) [Example 211-3, (M)-4-((2S,5R)-4-Acryloyl-2,5-dimethylpiperazin-1-yl)-6-chloro-7-(2-fluoro-6-(methylsulfinyl)phenyl)-1-(2-isopropyl-4-methylpyridin-3-yl)pyrido[2,3-d]pyrimidin-2(1H)-one], the IC50 in test [1] (setting [6]) was more than 7.5 µM; in test [2] (setting [5]), 0.253 µM.

Consider `C=CC(=O)N1C[C@H](C)N(c2nc(=O)n(-c3c(C(C)C)ccnc3C(C)C)c3nc(-c4ccccc4Cl)c(Cl)cc23)C[C@H]1C` (single isomer, unassigned) [Example 125-6], for which the IC50 in test [1] (setting [6]) was more than 7.5 µM; in test [2] (setting [5]), 0.105 µM.

For the molecule `C=CC(=O)N1C[C@H](C)N(c2nc(=O)n(-c3c(C(C)C)ccnc3C(C)C)c3nc(-c4ccccc4)c(Cl)cc23)C[C@H]1C` [Example 124-7, 6-Chloro-1-(2,4-diisopropyl-3-pyridyl)-4-[(2S,5R)-2,5-dimethyl-4-prop-2-enoyl-piperazin-1-yl]-7-phenyl-pyrido[2,3-d]pyrimidin-2-one], the IC50 is more than 7.5 µM in test [1] (setting [3]) and 0.093 µM in test [2] (setting [4]).

Take `C=CC(=O)N1C[C@H](C)N(c2nc(=O)n(-c3c(C(C)C)ccnc3C(C)C)c3nc(-c4ccccc4C(F)(F)F)c(Cl)cc23)C[C@H]1C` (single isomer, unassigned) [Example 125-3]: the values for the IC50 in test [1] (setting [6]) and in test [2] (setting [5]) were more than 7.5 µM and 0.041 µM, respectively.

In the case of `C=CC(=O)N1C[C@H](C)N(c2nc(=O)n(-c3c(C)cc(C=C)nc3C(C)C)c3nc(-c4ccccc4F)c(Cl)cc23)C[C@H]1C` (single isomer, unassigned) [Example 177-1], the IC50 in test [1] (setting [3]) was 3.34 µM; in test [2] (setting [4]), 0.063 µM.

On to `C=CC(=O)N1C[C@H](C)N(c2nc(=O)n(-c3c(C(C)C)ccnc3C(C)C)c3nc(-c4ccccc4C)c(Cl)cc23)C[C@H]1C` (single isomer, unassigned) [Example 125-2], for which the 50% inhibitory concentration (IC50) was more than 7.5 µM in test [1] (setting [6]) and 0.038 µM in test [2] (setting [5]).

Consider `C=CC(=O)N1C[C@H](C)N(c2nc(=O)n(-c3c(C(C)C)ccnc3C(C)C)c3nc(-c4ccccc4Cl)c(Cl)cc23)C[C@H]1C` (single isomer, unassigned) [Example 124-6], for which the values for the IC50 in test [1] (setting [3]) and in test [2] (setting [4]) were more than 7.5 µM and 0.062 µM, respectively.

In the case of `C=CC(=O)N1C[C@H](C)N(c2nc(=O)n(-c3c(C(C)C)ccnc3C(C)C)c3nc(-c4ccccc4)c(Cl)cc23)C[C@H]1C` (single isomer, unassigned) [Example 125-7], the IC50 was more than 7.5 µM in test [1] (setting [6]) and 0.137 µM in test [2] (setting [5]).

As for `C=CC(=O)N1C[C@H](C)N(c2nc(=O)n(-c3c(C(C)C)nc(CN(C)C)nc3C(C)C)c3nc(-c4ccccc4F)c(Cl)cc23)C[C@H]1C` [Example 160, 4-((2S,5R)-4-Acryloyl-2,5-dimethylpiperazin-1-yl)-6-chloro-1-(2-((dimethylamino)methyl)-4,6-diisopropylpyrimidin-5-yl)-7-(2-fluorophenyl)pyrido[2,3-d]pyrimidin-2(1H)-one], the IC50 in test [1] (Homo sapiens, A549, 2 h) was more than 7.5 µM; in test [2] (Homo sapiens, MIA PaCa-2, 2 h), 0.058 µM.

As to `C=CC(=O)N1C[C@H](C)N(c2nc(=O)n(-c3c(C(C)C)ccnc3C(C)C)c3nc(-c4ccccc4C(C)C)c(Cl)cc23)C[C@H]1C` [Example 124-8, 6-Chloro-1-(2,4-diisopropyl-3-pyridyl)-4-[(2S,5R)-2,5-dimethyl-4-prop-2-enoyl-piperazin-1-yl]-7-(2-isopropylphenyl)pyrido[2,3-d]pyrimidin-2-one], the concentration for half-maximal inhibition (IC50) in test [1] (setting [3]) was found to be 6.36 µM; in test [2] (setting [4]) it was 0.24 µM.

Take `C=CC(=O)N1C[C@H](C)N(c2nc(=O)n(-c3c(C(C)C)cc(Br)nc3C(C)C)c3nc(-c4ccccc4F)c(Cl)cc23)C[C@H]1C` [Example 102-4, 1-(6-Bromo-2,4-diisopropyl-3-pyridyl)-6-chloro-4-[(2S,5R)-2,5-dimethyl-4-prop-2-enoyl-piperazin-1-yl]-7-(2-fluorophenyl) pyrido[2,3-d]pyrimidin-2-one]: the figures for the IC50 in test [1] (setting [3]) and in test [2] (setting [4]) were 4.73 µM and 0.262 µM, respectively.

Consider `C=CC(=O)N1C[C@H](C)N(c2nc(=O)n(-c3c(CC)ccnc3C(C)C)c3nc(-c4ccccc4F)c(Cl)cc23)C[C@H]1C` [Example 55-58, 6-Chloro-4-[(2S,5R)-2,5-dimethyl-4-prop-2-enoyl-piperazin-1-yl]-l-(4-ethyl-2-isopropyl-3-pyridyl)-7-(2-fluorophenyl)pyrido[2,3-d]pyrimidin-2-one], for which the IC50 in test [1] (setting [3]) is more than 7.5 µM; in test [2] (setting [4]) it was 0.056 µM.

As for `C=CC(=O)N1C[C@H](C)N(c2nc(=O)n(-c3c(C)cc(C(=C)C)nc3C(C)C)c3nc(-c4ccccc4F)c(Cl)cc23)C[C@H]1C` (single isomer, unassigned) [Example 173-1], the IC50 in test [1] (setting [3]) worked out at 5.97 µM; in test [2] (setting [4]), 0.229 µM.
